Experimental data: ChEMBL document CHEMBL1201862, “PubChem BioAssay data set” (2004)
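Following 48 hours of exposure in 96-well plates, responses at five concentrations were used to interpolate endpoints linearly. GI50 = concentration required for 50% inhibition of growth.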 Calls of active or inactive are those of the source. Rule as the data show it: active = GI50 up to about 1.1 µM and inactive = higher.

Key:
Assay in all cases: NCI anticancer screen, dose series, 48 h
SK-OV-3 = test system: SK-OV-3
CCRF-CEM = test system: CCRF-CEM
T47D = test system: T47D
IGROV-1 = test system: IGROV-1
OVCAR-5 = test system: OVCAR-5
SN12C = test system: SN12C
MDA-MB-435 = test system: MDA-MB-435
OVCAR-4 = test system: OVCAR-4
EKVX = test system: EKVX
NCI-H460 = test system: NCI-H460
LOX IMVI = test system: LOX IMVI
TK-10 = test system: TK-10
NCI/ADR-RES = test system: NCI/ADR-RES
Hs-578T = test system: Hs-578T
HOP-62 = test system: HOP-62
KM12 = test system: KM12
UACC-62 = test system: UACC-62
HCC 2998 = test system: HCC 2998
SK-MEL-2 = test system: SK-MEL-2
SF-295 = test system: SF-295
DU-145 = test system: DU-145
HOP-92 = test system: HOP-92
U-251 = test system: U-251
HT-29 = test system: HT-29
RPMI-8226 = test system: RPMI-8226
MCF7 = test system: MCF7
HL-60 = test system: HL-60
HCT-15 = test system: HCT-15
RXF 393 = test system: RXF 393
SK-MEL-28 = test system: SK-MEL-28
OVCAR-8 = test system: OVCAR-8
BT-549 = test system: BT-549
ACHN = test system: ACHN
A549 = test system: A549
OVCAR-3 = test system: OVCAR-3
CAKI-1 = test system: CAKI-1
SNB-75 = test system: SNB-75
A498 = test system: A498
MDA-MB-231 = test system: MDA-MB-231
SW-620 = test system: SW-620
MDA-N = test system: MDA-N
PC-3 = test system: PC-3
NCI-H522 = test system: NCI-H522
NCI-H226 = test system: NCI-H226
MOLT-4 = test system: MOLT-4
K562 = test system: K562
UACC-257 = test system: UACC-257
M14 = test system: M14
SR = test system: SR
SNB-19 = test system: SNB-19
SF-539 = test system: SF-539
SK-MEL-5 = test system: SK-MEL-5
786-0 = test system: 786-0
HCT-116 = test system: HCT-116
Malme-3M = test system: Malme-3M
NCI-H23 = test system: NCI-H23
COLO 205 = test system: COLO 205
SF-268 = test system: SF-268
UO-31 = test system: UO-31

Cc1cc2c(cc1C)N1C(Cl)=C3CCCCC3=C(C#N)C1N2 (stereo not drawn)
GI50 (SK-OV-3): 18.6 µM (inactive) | GI50 (CCRF-CEM): 2.48 µM (inactive) | GI50 (T47D): 12.2 µM (inactive) | GI50 (IGROV-1): 6.76 µM (inactive) | GI50 (OVCAR-5): 21.1 µM (inactive) | GI50 (SN12C): 4.71 µM (inactive) | GI50 (MDA-MB-435): 6.03 µM (inactive) | GI50 (OVCAR-4): 12.3 µM (inactive) | GI50 (EKVX): 16.3 µM (inactive) | GI50 (NCI-H460): 18 µM (inactive) | GI50 (LOX IMVI): 2.19 µM (inactive) | GI50 (TK-10): 5.65 µM (inactive) | GI50 (NCI/ADR-RES): 6.31 µM (inactive) | GI50 (Hs-578T): 7.85 µM (inactive) | GI50 (HOP-62): 14.3 µM (inactive) | GI50 (KM12): 9.02 µM (inactive) | GI50 (UACC-62): 2.94 µM (inactive) | GI50 (HCC 2998): 8.69 µM (inactive) | GI50 (SK-MEL-2): 14.6 µM (inactive) | GI50 (SF-295): 20.4 µM (inactive) | GI50 (DU-145): 19.3 µM (inactive) | GI50 (HOP-92): 7.4 µM (inactive) | GI50 (U-251): 9.42 µM (inactive) | GI50 (HT-29): 2.55 µM (inactive) | GI50 (RPMI-8226): 5.25 µM (inactive) | GI50 (MCF7): 4.16 µM (inactive) | GI50 (HL-60): 3.05 µM (inactive) | GI50 (HCT-15): 2.61 µM | GI50 (RXF 393): 14 µM (inactive) | GI50 (SK-MEL-28): 3.3 µM (inactive) | GI50 (OVCAR-8): 11.5 µM (inactive) | GI50 (BT-549): 2.45 µM (inactive) | GI50 (ACHN): 3.16 µM (inactive) | GI50 (A549): 19.9 µM (inactive) | GI50 (OVCAR-3): 16.7 µM (inactive) | GI50 (CAKI-1): 5.04 µM (inactive) | GI50 (SNB-75): 23.6 µM (inactive) | GI50 (A498): 19.1 µM (inactive) | GI50 (MDA-MB-231): 8.75 µM (inactive) | GI50 (SW-620): 2.02 µM (inactive) | GI50 (MDA-N): 4.15 µM (inactive) | GI50 (PC-3): 13.6 µM (inactive) | GI50 (NCI-H522): 2 µM (inactive) | GI50 (NCI-H226): 13.5 µM (inactive) | GI50 (MOLT-4): 3.48 µM (inactive) | GI50 (K562): 3.6 µM (inactive) | GI50 (UACC-257): 8.18 µM (inactive) | GI50 (M14): 7.38 µM (inactive) | GI50 (SR): 3.65 µM (inactive) | GI50 (SNB-19): 20.2 µM (inactive) | GI50 (SF-539): 22.4 µM (inactive) | GI50 (SK-MEL-5): 3.72 µM (inactive) | GI50 (786-0): 1.92 µM (inactive) | GI50 (HCT-116): 1.7 µM (inactive) | GI50 (Malme-3M): 16.8 µM (inactive) | GI50 (NCI-H23): 4.98 µM (inactive) | GI50 (COLO 205): 16.5 µM (inactive) | GI50 (SF-268): 9.25 µM (inactive) | GI50 (UO-31): 6.55 µM (inactive)

C=CC(C)(C)N[C@@H](C(=O)N1CCC[C@H]1c1nc(-c2nc(C(=O)OCC=C(C)C)c(C)o2)c(C)o1)C(C)C
GI50 (SK-OV-3): 27.1 µM (inactive) | GI50 (CCRF-CEM): 11.7 µM (inactive) | GI50 (T47D): 21.3 µM (inactive) | GI50 (IGROV-1): 28.8 µM (inactive) | GI50 (OVCAR-5): 35.9 µM (inactive) | GI50 (SN12C): 18.5 µM (inactive) | GI50 (MDA-MB-435): 18.5 µM (inactive) | GI50 (OVCAR-4): 22.8 µM (inactive) | GI50 (EKVX): 32.3 µM (inactive) | GI50 (NCI-H460): 24 µM (inactive) | GI50 (LOX IMVI): 30.6 µM (inactive) | GI50 (TK-10): 24.3 µM (inactive) | GI50 (NCI/ADR-RES): 22.6 µM (inactive) | GI50 (Hs-578T): 18 µM (inactive) | GI50 (HOP-62): 21.6 µM (inactive) | GI50 (KM12): 23 µM (inactive) | GI50 (UACC-62): 18 µM (inactive) | GI50 (HCC 2998): 18.9 µM (inactive) | GI50 (SK-MEL-2): 34 µM (inactive) | GI50 (SF-295): 20.1 µM (inactive) | GI50 (DU-145): 17.2 µM (inactive) | GI50 (HOP-92): 17.5 µM (inactive) | GI50 (U-251): 21.1 µM (inactive) | GI50 (HT-29): 19.1 µM (inactive) | GI50 (RPMI-8226): 18.7 µM (inactive) | GI50 (MCF7): 23.4 µM (inactive) | GI50 (HL-60): 20.6 µM (inactive) | GI50 (HCT-15): 22 µM | GI50 (RXF 393): 30.7 µM (inactive) | GI50 (SK-MEL-28): 18.5 µM (inactive) | GI50 (OVCAR-8): 23.4 µM (inactive) | GI50 (BT-549): 23.6 µM (inactive) | GI50 (ACHN): 29.4 µM (inactive) | GI50 (A549): 29.9 µM (inactive) | GI50 (OVCAR-3): 23.1 µM (inactive) | GI50 (CAKI-1): 35.5 µM (inactive) | GI50 (SNB-75): 33.8 µM (inactive) | GI50 (A498): 19.7 µM (inactive) | GI50 (MDA-MB-231): 21.3 µM (inactive) | GI50 (SW-620): 22.3 µM (inactive) | GI50 (MDA-N): 18 µM (inactive) | GI50 (PC-3): 25.5 µM (inactive) | GI50 (NCI-H522): 16.9 µM (inactive) | GI50 (NCI-H226): 17 µM (inactive) | GI50 (MOLT-4): 15.2 µM (inactive) | GI50 (K562): 36.5 µM (inactive) | GI50 (UACC-257): 20.5 µM (inactive) | GI50 (M14): 29 µM (inactive) | GI50 (SR): 18.1 µM (inactive) | GI50 (SNB-19): 19.7 µM (inactive) | GI50 (SF-539): 16.3 µM (inactive) | GI50 (SK-MEL-5): 22.3 µM (inactive) | GI50 (786-0): 19.5 µM (inactive) | GI50 (HCT-116): 17.8 µM (inactive) | GI50 (Malme-3M): 18.6 µM (inactive) | GI50 (NCI-H23): 21.8 µM (inactive) | GI50 (COLO 205): 22.4 µM (inactive) | GI50 (SF-268): 20.9 µM (inactive) | GI50 (UO-31): 14.3 µM (inactive)
